In US10112899B2 (ViiV HEALTHCARE UK LIMITED, priority 2014, dated 2018) one finds IC50 data, which are given here for 23 compounds.

In this experiment the test system is HIV in the HTLV-1 transformed cell line MT-4. Briefly: organism not typed. It counts as cell-based. To be noted: MT4, 96 h, MT-4 cells; luciferase/cell titer glo readout after 96 hours; 10 point dose response. (ATP-based viability assays read luminescence as a measure of living cells.)
In turn, `Cc1c(-c2c(C)c3c(c(C)c2[C@H](OC(C)(C)C)C(=O)O)CN(C(=O)N2CCCC(F)(F)C2)C3)cc(F)c2c1CCCO2` (atropisomer, axis not shown) [Example 102, (S)-2-(tert-butoxy)-2-((R)-2-(3,3-difluoropiperidine-1-carbonyl)-6-(8-fluoro-5-methylchroman-6-yl)-4,7-dimethylisoindolin-5-yl)acetic acid] returned a concentration for half-maximal inhibition (IC50) of 2 nM. `Cc1c(-c2c(C)c3c(c(C)c2[C@H](OC(C)(C)C)C(=O)O)CN(Cc2cccc(F)c2)C3)cc(F)c2c1CCCO2` (atropisomer, axis not shown; (M)) [Example 8, (2S)(M)-2-(tert-Butoxy)-2-(-6-(8-fluoro-5-methylchroman-6-yl)-2-(3-fluorobenzyl)-4,7-dimethylisoindolin-5-yl)acetic acid]: the IC50 was found to be 5 nM. Then `Cc1c(-c2c(C)c3c(c(C)c2[C@H](OC(C)(C)C)C(=O)O)CN(C(=O)N2CCC(F)(F)C2)C3)cc(F)c2c1CCCO2` (atropisomer, axis not shown; (M)) [Example 100, (2S)-2-(tert-Butoxy)-2-(2-(3,3-difluoropyrrolidine-1-carbonyl)-6-(M)-(8-fluoro-5-methylchroman-6-yl)-4,7-dimethylisoindolin-5-yl)acetic acid], with 5 nM; and `Cc1c(-c2c(C)c3c(c(C)c2[C@H](OC(C)(C)C)C(=O)O)CN(C(=O)N2CCCCC2)C3)cc(F)c2c1CCCO2` (atropisomer, axis not shown; (M)) [Example 101, (2S)-2-(tert-butoxy)-2-(6-(M)-(8-fluoro-5-methylchroman-6-yl)-4,7-dimethyl-2-(piperidine-1-carbonyl)isoindolin-5-yl)acetic acid], with 3 nM. With `Cc1c(-c2c(C)c3c(c(C)c2[C@H](OC(C)(C)C)C(=O)O)CN(C(=O)c2cccc(F)c2)C3)cc(F)c2c1CCCO2` (atropisomer, axis not shown; (M)) [Example 103, (2S)-2-(tert-butoxy)-2-((M)6-(8-fluoro-5-methylchroman-6-yl)-2-(3-fluorobenzoyl)-4,7-dimethylisoindolin-5-yl)acetic acid] the figure was 2 nM. With `Cc1c(-c2c(C)c3c(c(C)c2[C@H](OC(C)(C)C)C(=O)O)CN(C(=O)CC(C)(C)C)C3)cc(F)c2c1CCCO2` (atropisomer, axis not shown; (M)) [Example 104, (S)-2-(tert-butoxy)-2-((M)-2-(3,3-dimethylbutanoyl)-6-(8-fluoro-5-methylchroman-6-yl)-4,7-dimethylisoindolin-5-yl)acetic acid] the figure was 2 nM; with `Cc1c(-c2c(C)c3c(c(C)c2[C@H](OC(C)(C)C)C(=O)O)CN(C(=O)C2CCCCC2)C3)cc(F)c2c1CCCO2` (atropisomer, axis not shown; (M)) [Example 137, (S)-2-(tert-butoxy)-2-((M)-2-(cyclohexanecarbonyl)-6-(8-fluoro-5-methylchroman-6-yl)-4,7-dimethylisoindolin-5-yl)acetic acid], 2 nM; with `Cc1c(-c2c(C)c3c(c(C)c2[C@H](OC(C)(C)C)C(=O)O)CN(C(=O)c2cccc4c2OCO4)C3)cc(F)c2c1CCCO2` (atropisomer, axis not shown; (M)) [Example 138, (S)-2-((M)-2-(benzo[d][1,3]dioxole-4-carbonyl)-6-(8-fluoro-5-methylchroman-6-yl)-4,7-dimethylisoindolin-5-yl)-2-(tert-butoxy)acetic acid], 2 nM. For the compound `COc1cccc(C(=O)N2Cc3c(C)c(-c4cc(F)c5c(c4C)CCCO5)c([C@H](OC(C)(C)C)C(=O)O)c(C)c3C2)c1C` (atropisomer, axis not shown; (M)) [Example 139, (S)-2-(tert-butoxy)-2-((M)-6-(8-fluoro-5-methylchroman-6-yl)-2-(3-methoxy-2-methylbenzoyl)-4,7-dimethylisoindolin-5-yl)acetic acid], the IC50 was determined as 37 nM. With `COc1cc(F)cc(C(=O)N2Cc3c(C)c(-c4cc(F)c5c(c4C)CCCO5)c([C@H](OC(C)(C)C)C(=O)O)c(C)c3C2)c1` (atropisomer, axis not shown; (M)) [Example 140, (S)-2-(tert-butoxy)-2-((M)-2-(3-fluoro-5-methoxybenzoyl)-6-(8-fluoro-5-methylchroman-6-yl)-4,7-dimethylisoindolin-5-yl)acetic acid] the figure was 2 nM; with `Cc1c(F)cccc1C(=O)N1Cc2c(C)c(-c3cc(F)c4c(c3C)CCCO4)c([C@H](OC(C)(C)C)C(=O)O)c(C)c2C1` (atropisomer, axis not shown; (M)) [Example 141, (S)-2-(tert-butoxy)-2-((M)-2-(3-fluoro-2-methylbenzoyl)-6-(8-fluoro-5-methylchroman-6-yl)-4,7-dimethylisoindolin-5-yl)acetic acid], 4 nM; with `Cc1ncccc1C(=O)N1Cc2c(C)c(-c3cc(F)c4c(c3C)CCCO4)c([C@H](OC(C)(C)C)C(=O)O)c(C)c2C1` (atropisomer, axis not shown; (M)) [Example 142, (S)-2-(tert-butoxy)-2-((M)-6-(8-fluoro-5-methylchroman-6-yl)-4,7-dimethyl-2-(2-methylnicotinoyl)isoindolin-5-yl)acetic acid], 31 nM. As for `COc1cncc(C(=O)N2Cc3c(C)c(-c4cc(F)c5c(c4C)CCCO5)c([C@H](OC(C)(C)C)C(=O)O)c(C)c3C2)c1` (atropisomer, axis not shown; (M)) [Example 143, (S)-2-(tert-butoxy)-2-((M)-6-(8-fluoro-5-methylchroman-6-yl)-2-(5-methoxynicotinoyl)-4,7-dimethylisoindolin-5-yl)acetic acid], the IC50 was 4 nM. With `Cc1ccc(C(=O)N2Cc3c(C)c(-c4cc(F)c5c(c4C)CCCO5)c([C@H](OC(C)(C)C)C(=O)O)c(C)c3C2)cc1F` (atropisomer, axis not shown; (M)) [Example 144, (S)-2-(tert-butoxy)-2-((M)-2-(3-fluoro-4-methylbenzoyl)-6-(8-fluoro-5-methylchroman-6-yl)-4,7-dimethylisoindolin-5-yl)acetic acid] the figure was 5 nM; with `Cc1cc(C(=O)N2Cc3c(C)c(-c4cc(F)c5c(c4C)CCCO5)c([C@H](OC(C)(C)C)C(=O)O)c(C)c3C2)ccc1F` (atropisomer, axis not shown; (M)) [Example 145, (S)-2-(tert-butoxy)-2-((M)-2-(4-fluoro-3-methylbenzoyl)-6-(8-fluoro-5-methylchroman-6-yl)-4,7-dimethylisoindolin-5-yl)acetic acid], 2 nM. For the compound `Cc1ccccc1C(=O)N1Cc2c(C)c(-c3cc(F)c4c(c3C)CCCO4)c([C@H](OC(C)(C)C)C(=O)O)c(C)c2C1` (atropisomer, axis not shown; (M)) [Example 146, (S)-2-(tert-butoxy)-2-((M)-6-(8-fluoro-5-methylchroman-6-yl)-4,7-dimethyl-2-(2-methylbenzoyl)isoindolin-5-yl)acetic acid], the IC50 was 3 nM. As for `Cc1c(-c2c(C)c3c(c(C)c2[C@H](OC(C)(C)C)C(=O)O)CN(C(=O)c2cccc(Cl)c2)C3)cc(F)c2c1CCCO2` (atropisomer, axis not shown; (M)) [Example 147, (S)-2-(tert-butoxy)-2-((M)-2-(3-chlorobenzov)-6-(8-fluoro-5-methylchroman-6-yl)-4,7-dimethylisoindolin-5-yl)acetic acid], the IC50 amounted to 13 nM. As to `COc1cccc(C(=O)N2Cc3c(C)c(-c4cc(F)c5c(c4C)CCCO5)c([C@H](OC(C)(C)C)C(=O)O)c(C)c3C2)c1F` (atropisomer, axis not shown; (M)) [Example 148, (S)-2-(tert-butoxy)-2-((M)-2-(2-fluoro-3-methoxybenzoyl)-6-(8-fluoro-5-methylchroman-6-yl)-4,7-dimethylisoindolin-5-yl)acetic acid], the midpoint of inhibition, the IC50, lay at 9 nM.

`Cc1cccc(C(=O)N2Cc3c(C)c(-c4cc(F)c5c(c4C)CCCO5)c([C@H](OC(C)(C)C)C(=O)O)c(C)c3C2)c1` (atropisomer, axis not shown; (M)) [Example 149, (S)-2-(tert-butoxy)-2-((M)-6-(8-fluoro-5-methylchroman-6-yl)-4,7-dimethyl-2-(3-methylbenzoyl)isoindolin-5-yl)acetic acid] registered a half-inhibitory concentration (IC50) of 2 nM. With `COc1ccc(F)cc1C(=O)N1Cc2c(C)c(-c3cc(F)c4c(c3C)CCCO4)c([C@H](OC(C)(C)C)C(=O)O)c(C)c2C1` (atropisomer, axis not shown; (M)) [Example 150, (S)-2-(tert-butoxy)-2-((M)-2-(5-fluoro-2-methoxybenzoyl)-6-(8-fluoro-5-methylchroman-6-yl)-4,7-dimethylisoindolin-5-yl)acetic acid] the figure was 4 nM; with `Cc1c(-c2c(C)c3c(c(C)c2[C@H](OC(C)(C)C)C(=O)O)CN(C(=O)c2cccc4sccc24)C3)cc(F)c2c1CCCO2` (atropisomer, axis not shown; (M)) [Example 151, (S)-2-((M)-2-(benzo[b]thiophene-4-carbonyl)-6-(8-fluoro-5-methylchroman-6-yl)-4,7-dimethylisoindolin-5-yl)-2-(tert-butoxy)acetic acid], 5 nM; with `Cc1c(-c2c(C)c3c(c(C)c2[C@H](OC(C)(C)C)C(=O)O)CN(C(=O)c2cccc4c2OCC4)C3)cc(F)c2c1CCCO2` (atropisomer, axis not shown; (M)) [Example 152, (S)-2-(tert-butoxy)-2-((M)-2-(2,3-dihydrobenzofuran-7-carbonyl)-6-(8-fluoro-5-methylchroman-6-yl)-4,7-dimethylisoindolin-5-yl)acetic acid], 2 nM. Then `Cc1c(-c2c(C)c3c(c(C)c2[C@H](OC(C)(C)C)C(=O)O)CN(C(=O)c2cccc4c2OCCO4)C3)cc(F)c2c1CCCO2` (atropisomer, axis not shown; (M)) [Example 153, (S)-2-(tert-butoxy)-2-((M)-2-(2,3-dihydrobenzo[b][1,4]dioxine-5-carbonyl)-6-(8-fluoro-5-methylchroman-6-yl)-4,7-dimethylisoindolin-5-yl)acetic acid], with 4 nM.

Usually IC50 stands for the point on the concentration scale where inhibition reaches its midpoint. Read a low IC50 as higher potency.
